Reference: DBAASP
Values after ≈ are worked out from the molar mass of the structure shown.

Key:
Assay in all cases: ≥ marks a high value that may be exact or a test limit, other limits are often not marked, values filed in µg/mL are converted to µM
[1] = system: Listeria monocytogenes DSM 20600
[2] = system: Escherichia coli D31
[3] = system: Listeria grayi DSM 20601
[4] = system: Micrococcus luteus DSM 20030
[5] = system: Listeria fleischmannii DSM 24998
[6] = system: Limosilactobacillus fermentum ATCC 9338
[7] = system: Lacticaseibacillus casei ATCC 393
[8] = system: Streptococcus gordonii DL1
[9] = system: Streptococcus mutans UA159
[10] = system: Actinomyces viscosus ATCC 15987
[11] = system: Actinomyces naeslundii ATCC 12104
[12] = system: Lactobacillus acidophilus ATCC 14931
[13] = system: Streptococcus sanguinis ATCC 10556
[14] = system: Candida albicans C627
[15] = system: Enterococcus faecium mic80
[16] = system: Pseudomonas aeruginosa LES400
[17] = system: Pseudomonas aeruginosa H103
[18] = system: Escherichia coli ESBL 63103
[19] = system: Pseudomonas aeruginosa 213
[20] = system: Staphylococcus aureus C623
[21] = system: Staphylococcus aureus ATCC 25923

CC[C@H](C)[C@H](NC(=O)[C@H](C)NC(=O)[C@H](CCCCN)NC(=O)[C@H](CCCCN)NC(=O)[C@@H](NC(=O)CNC(=O)[C@H](CCC(=O)O)NC(=O)[C@H](CC(C)C)NC(=O)[C@H](CC(C)C)NC(=O)[C@H](CCCCN)NC(=O)CNC(=O)[C@H](Cc1c[nH]c2ccccc12)NC(=O)[C@H](Cc1ccccc1)NC(=O)CN)C(C)C)C(N)=O [GFWGKLLEGVKKAI]
MIC [1]: 15 µM (≈ 23.2 µg/mL)
MIC [2]: 15 µM (≈ 23.2 µg/mL)
MIC [3]: 8 µM (≈ 12.4 µg/mL)
MIC [4]: 8 µM (≈ 12.4 µg/mL)
MIC [5]: 15 µM (≈ 23.2 µg/mL)

CC(C)C[C@H](NC(=O)CN)C(=O)N[C@@H](CC(C)C)C(=O)N[C@@H](Cc1c[nH]c2ccccc12)C(=O)N[C@@H](Cc1cnc[nH]1)C(=O)N[C@@H](CC(C)C)C(=O)N[C@@H](CC(C)C)C(=O)N[C@@H](Cc1cnc[nH]1)C(N)=O [GLLWHLLH]
MIC [6]: ≥ 130 µM
MIC [7]: ≥ 64.8 µM
MIC [8]: ≥ 518 µM
MIC [9]: ≥ 259 µM
MIC [10]: ≥ 32.4 µM
MIC [11]: ≥ 130 µM
MIC [12]: ≥ 130 µM
MIC [13]: ≥ 518 µM

CC[C@H](C)[C@H](NC(=O)[C@H](CCCCN)NC(=O)[C@H](Cc1c[nH]c2ccccc12)NC(=O)[C@H](Cc1c[nH]c2ccccc12)NC(=O)[C@@H](N)CCCCN)C(=O)N[C@@H](Cc1c[nH]c2ccccc12)C(=O)N[C@@H](CCCN=C(N)N)C(=O)N[C@@H](Cc1c[nH]c2ccccc12)C(=O)N[C@@H](CCCN=C(N)N)C(=O)O [KWWKIWRWR]
MIC [14]: 5.54 µM (≈ 8 µg/mL)
MIC [15]: 22.1 µM (≈ 32 µg/mL)
MIC [16]: ≥ 44.3 µM
MIC [17]: 22.1 µM (≈ 32 µg/mL)
MIC [18]: ≥ 44.3 µM
MIC [19]: ≥ 88.6 µM
MIC [20]: 11.1 µM (≈ 16 µg/mL)
MIC [21]: 11.1 µM (≈ 16 µg/mL)
